Here are results for 17 compounds from patent US20230373939A1 (VERTEX PHARMACEUTICALS INCORPORATED, priority 2020, published 2023).

For this assay, the target named is T1, F508del in NIH 3T3 cells (Homo sapiens, UniProt P13569, DEL508-508).
T1 construct: expressed in transfected cells
As to the kind of experiment: 3T3 assay: membrane potential optical assay for F508del correction. Type of assay: cell-based. Conditions: for EC50: read-out: 3T3 EC50. Put shortly:
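NIH 3T3 mouse fibroblasts stably expressing F508del were incubated with corrector compounds at a range of concentrations for 16–24 h at 37 °C, then loaded with a voltage-sensing redistribution dye. Channel activity was read as membrane-potential change on FLIPR after a single addition of forskolin with a chloride-free (gluconate) bath creating a Cl⁻ gradient.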

The mark [1] stands for this setting: NIH3T3, read-out: 3T3 Max Activity (%).
[2] abbreviates: NIH3T3, NIH 3T3 cells, F508del, read-out: 3T3 Max Activity (%).

Read-outs that look alike come from different tables or passages of the source.

T1 sequence (P13569 with tags, fused parts or gaps DEL508-508): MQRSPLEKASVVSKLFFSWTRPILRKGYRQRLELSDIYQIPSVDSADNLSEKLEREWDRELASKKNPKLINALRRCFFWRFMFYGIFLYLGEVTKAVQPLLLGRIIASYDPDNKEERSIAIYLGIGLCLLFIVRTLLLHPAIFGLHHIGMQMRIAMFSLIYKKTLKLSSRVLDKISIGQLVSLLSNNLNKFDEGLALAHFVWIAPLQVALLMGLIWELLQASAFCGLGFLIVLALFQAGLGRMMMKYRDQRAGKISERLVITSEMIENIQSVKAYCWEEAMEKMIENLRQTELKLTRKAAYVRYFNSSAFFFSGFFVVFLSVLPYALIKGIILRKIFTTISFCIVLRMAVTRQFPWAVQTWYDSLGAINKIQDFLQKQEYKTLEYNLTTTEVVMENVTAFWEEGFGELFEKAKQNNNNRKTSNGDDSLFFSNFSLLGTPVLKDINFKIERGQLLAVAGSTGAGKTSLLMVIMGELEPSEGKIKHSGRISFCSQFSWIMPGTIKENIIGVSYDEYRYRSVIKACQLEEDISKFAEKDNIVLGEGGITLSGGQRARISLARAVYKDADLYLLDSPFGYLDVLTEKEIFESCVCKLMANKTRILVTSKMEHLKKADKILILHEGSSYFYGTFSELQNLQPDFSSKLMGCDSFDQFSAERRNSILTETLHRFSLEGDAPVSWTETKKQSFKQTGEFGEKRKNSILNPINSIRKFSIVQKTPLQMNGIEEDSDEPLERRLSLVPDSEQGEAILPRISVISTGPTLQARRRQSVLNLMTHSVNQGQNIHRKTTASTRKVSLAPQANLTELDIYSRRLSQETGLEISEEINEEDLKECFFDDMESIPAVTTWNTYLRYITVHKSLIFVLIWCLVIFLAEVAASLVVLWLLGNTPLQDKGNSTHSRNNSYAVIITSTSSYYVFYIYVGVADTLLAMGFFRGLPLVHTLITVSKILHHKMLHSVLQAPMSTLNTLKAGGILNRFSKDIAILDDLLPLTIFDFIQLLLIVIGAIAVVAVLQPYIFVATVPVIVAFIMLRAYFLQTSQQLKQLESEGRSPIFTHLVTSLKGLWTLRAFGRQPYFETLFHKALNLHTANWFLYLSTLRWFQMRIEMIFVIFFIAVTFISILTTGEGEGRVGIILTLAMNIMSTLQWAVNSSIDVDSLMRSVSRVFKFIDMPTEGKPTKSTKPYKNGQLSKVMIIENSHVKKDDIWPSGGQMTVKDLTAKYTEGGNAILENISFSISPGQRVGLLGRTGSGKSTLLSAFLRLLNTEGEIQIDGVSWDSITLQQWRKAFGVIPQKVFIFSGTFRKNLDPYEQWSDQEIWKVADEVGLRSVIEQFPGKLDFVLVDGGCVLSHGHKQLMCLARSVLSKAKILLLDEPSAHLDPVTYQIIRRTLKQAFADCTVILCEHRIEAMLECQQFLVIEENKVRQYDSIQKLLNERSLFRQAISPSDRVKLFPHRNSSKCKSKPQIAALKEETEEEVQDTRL

In the case of `Cc1cccc(-c2cc(NS(=O)(=O)c3ccccc3)nn2-c2c(C)cc(C)cc2C)c1` [Compound 48, N-[5-(m-tolyl)-1-(2,4,6-trimethylphenyl)pyrazol-3-yl]benzenesulfonamide], under setting [1], the Emax was over 60%. Besides, the concentration giving a half-maximal response (EC50) (NIH 3T3 cells, F508del) is under 1000 nM.
For `O=C(O)c1sc(NS(=O)(=O)c2ccccc2)nc1-c1ccccc1` [Compound 42, 4-phenyl-2-(phenylsulfonamido)thiazole-5-carboxylic acid], the Emax under setting [2] lay within 30 to 60%.
Turning to `CCCc1ccc(NS(=O)(=O)c2ccccc2)nc1-c1ccc(C)cc1` [Compound 140, N-[5-propyl-6-(p-tolyl)-2-pyridyl]benzenesulfonamide], the Emax under setting [2] was over 60%. Further, under “NIH 3T3 cells, F508del”, the EC50 lay in the range of 1000 to 3000 nM.
Take `C=C(C)c1cn(-c2c(C)cc(C)cc2C)nc1NS(=O)(=O)c1ccccc1` [Compound 97, N-[4-isopropenyl-1-(2,4,6-trimethylphenyl)pyrazol-3-yl]benzenesulfonamide]: the Emax under setting [2] is under 30%.
For the compound `Cc1cccc(C)c1-c1cnc(N2CCN(C)CC2)c(NS(=O)(=O)c2ccccc2)n1` [Compound 122, N-[6-(2,6-dimethylphenyl)-3-(4-methylpiperazin-1-yl)pyrazin-2-yl]benzenesulfonamide], the Emax under setting [2] is under 30%.
`Cc1cc(C)c(-n2cc(C(C)C)c(NS(=O)(=O)c3ccccc3)n2)c(C)c1` [Compound 98]: under setting [2], the Emax was under 30%.
As to `Cc1cc(NS(=O)(=O)c2ccccc2)nc(-c2cc(C)ccc2C)c1` [Compound 135, N-[6-(2,5-Dimethylphenyl)-4-methyl-2-pyridyl]benzenesulfonamide], the Emax under setting [2] was over 60%. In addition, the EC50 (NIH 3T3 cells, F508del) is 1000 to 3000 nM.
With `O=S(=O)(Nc1nn(Cc2ccccc2)cc1C1=CCCCC1)c1ccccc1` [Compound 106, N-[1-benzyl-4-(cyclohexen-1-yl)pyrazol-3-yl]benzenesulfonamide], under setting [2], the Emax is under 30%.
In the case of `O=S(=O)(Nc1nn(-c2cccc(Cl)c2)cc1C1=CCCCC1)c1ccccc1` [Compound 87, N-[1-(3-chlorophenyl)-4-(cyclohexen-1-yl)pyrazol-3-yl]benzenesulfonamide], the Emax under setting [2] lay within 30 to 60%. In addition, the concentration for a half-maximal effect (EC50) (NIH 3T3 cells, F508del) is 1000 to 3000 nM.
As to `Cc1cccc(-c2cn(Cc3ccccc3)nc2NS(=O)(=O)c2ccccc2)c1` [Compound 114, N-[1-benzyl-4-(m-tolyl)pyrazol-3-yl]benzenesulfonamide], the Emax under setting [2] was under 30%.
For `Cc1cc(NS(=O)(=O)c2ccccc2)nc(-c2cccc(C)c2C)c1` [Compound 154], the Emax under setting [2] is over 60%. The EC50 (NIH 3T3 cells, F508del) lay within 3000 to 30000 nM.
On to `CCCN(C)C(=O)c1sc(NS(=O)(=O)c2ccccc2)nc1-c1ccccc1` [Compound 38, 2-(benzenesulfonamido)-N-methyl-4-phenyl-N-propyl-thiazole-5-carboxamide], for which the Emax under setting [2] is under 30%.
Turning to `Cc1cc(C)c(-n2nc(NS(=O)(=O)c3ccccc3)cc2-c2ccc(Oc3ccccc3)cc2)c(C)c1` [Compound 49, N-[5-(4-phenoxyphenyl)-1-(2,4,6-trimethylphenyl)pyrazol-3-yl]benzenesulfonamide], the Emax under setting [1] lay within 30 to 60%. Moreover, the EC50 (NIH 3T3 cells, F508del) is under 1000 nM.
For `Cc1cccc(C)c1-c1cnc(Oc2ccccc2)c(NS(=O)(=O)c2ccccc2)n1` [Compound 121, N-[6-(2,6-dimethylphenyl)-3-phenoxy-pyrazin-2-yl]benzenesulfonamide], under setting [2], the Emax is under 30%.
On to `CCCc1sc(NS(=O)(=O)c2ccccc2)nc1-c1ccc(C)cc1` [Compound 5, N-[5-propyl-4-(p-tolyl)thiazol-2-yl]benzenesulfonamide], for which the Emax under setting [1] was over 60%. Moreover, for the setting “NIH 3T3 cells, F508del”, the 50% effective concentration (EC50) was under 1000 nM.
With `Cc1ccc(-c2cc(NS(=O)(=O)c3ccccc3)nn2-c2c(C)cc(C)cc2C)cc1` [Compound 61, N-[5-(p-tolyl)-1-(2,4,6-trimethylphenyl)pyrazol-3-yl]benzenesulfonamide], the Emax under setting [2] lay within 30 to 60%. For the setting “NIH 3T3 cells, F508del”, the 50% effective concentration (EC50) was under 1000 nM.
Turning to `O=S(=O)(Nc1nn(Cc2ccccc2)cc1-c1ccc(Cl)cc1)c1ccccc1` [Compound 108, N-[1-benzyl-4-(4-chlorophenyl)pyrazol-3-yl]benzenesulfonamide], the Emax under setting [2] was in the range of 30 to 60%.
